Laboratory results published in patent publication US11028127B2, “Peptides capable of reactivating p53 mutants” (Yeda Research and Development Co. Ltd., priority 2013, dated 2021).

Target: T1, Mut-p53 (R175H p53) (Homo sapiens, UniProt P04637, R175H)
T1 construct: a hot spot full length mutant p53 Mut-p53 R175H (R175H p53); expressed in transfected cells; host or cells: H1299 (p53-null) cells stably overexpressing R175H p53; cell extract
Test: Sandwich ELISA for p53 conformation (PAb1620/PAb240 reactivity)
Format: biochemical
Procedure: To measure the conformational effect of the peptides on Mut-p53, a micro-titer plate was coated with either PAb240, PAb1620 or pAb421 (as a positive control and standard for total p53 protein, since the antibody used recognizes both WT and mutant conformations), overnight incubated, washed, blocked, and cell extracts (with or without peptides) were added for an additional 2 hours. After removal of extracts, plates were washed and incubated with the αp53-HRP conjugated Ab for the detection of p53 levels. A TMB (substrate of HRP) assay was performed and optical density was determined at 450 nm. WT p53 served as a positive control for reactivity with PAb1620, and Mut-p53 served as a negative control. The results are presented as the ratio of absorbance between the PAb1620 or PAb240 samples and the control […] sample. MCF7 and H1299-Mut-p53 (ts) A135V (TS) cells were used as positive controls for the WT p53 conformation (1620/240 ratio equals or exceeds 5:1).
96-well plates were coated using 3 different antibodies (1 type of antibody (Ab) in each well): PAb421 recognizes both conformations of p53 and binds to a C-terminus epitope; PAb240 recognizes mutant conformation of p53, binds to epitope within the core domain (amino acids 212-217) (Stephen, C. W. and D. P. Lane, Mutant conformation of p53. Precise epitope mapping using a filamentous phage epitope library. J. Mol. Biol., 1992. 225(3): p. 577-83) which is accessible to the Ab when the protein is partially denatured (for example, when the DBD is mutated); and PAb1620, which recognizes WT conformation of p53, binds to epitope with in the core domain (aa 156, 206-210), formed when folding is in WT conformation (Wang, P. L., F. Salt, and G. Winter, The ‘wild type’ conformation of p53: epitope mapping using hybrid proteins. Oncogene, 2001. 20(18): p. 2318-24).
Wells were incubated overnight (ON) with 100 μl Ab (5 μg/ml) in room temp (RT). The liquid was discarded, and the wells were washed 3 times with Phosphate buffered saline (PBS), 200 μl per each wash. Next, blocking with 200 μl of 5% bovine serum albumin (BSA) diluted in PBS in each well for 1.5 hours at room temperature (RT) was performed. Blocking buffer was discarded, followed by 3 washes in PBS as described above. Samples of mutant and WT p53 proteins (100 μl, 10 μg/ml), together with control peptides pCAP-710 (LPNPPER, SEQ ID NO:328) and pCAP-1220 ([…], SEQ ID NO:368) (5 μg/ml, Sigma Aldrich, or with test peptides 1-153 (5 μg/ml), were incubated for 1.5 hours together, and then added to the wells. Samples were rotated and incubated for 1 hour at RT. Samples were discarded, following 4 washes as described above, using Trisphosphate buffered saline (TPBS). Next, horseradish peroxidase (HRP) conjugated streptavidin p53 antibody (10 μg/ml HAF1355 (R&D)) was added to the wells and incubated at RT for 1 hour. After the plate was washed 3 times in TPBS, TMB substrate solution (50 μl each well, Thermo, (Cat. No. ES001-1L-K)) was added and incubated at 37° c. for 20 min. The reaction was stopped with 2M sulfuric acid (50 μl). The absorbance was measured at 450 nm with a spectrophotometer. Protein concentration was determined by dividing the absorbencies of each sample to the absorbance of Ab 421 samples.
The first screening strategy was based on ELISA. A version of sandwich ELISA was used to examine the effect of the lead test peptides on p53 conformation. To measure the conformational effect of the peptides on Mut-p53, a micro-titer plate was coated with PAb240, PAb1620 or pAb421 (as a positive control), and then the reactivity of p53 to these antibodies was examined. WT p53 served as a positive control for reactivity with PAb1620, and Mut-p53 served as a negative control. To examine the effect of a tested peptide it was added to a solution containing Mut-p53 and change in reactivity to either Ab was tested. […] Several ELISA experiments using different cell extracts were performed. […]

Sequence: YRRLLIGMMWRRRRRRRRRRR [pCAP-68]
- effect on Mut-p53 conformation (conformational change): significant shift in Mut-p53 conformation towards PAb1620
- reactivity of R175H Mut-p53 towards PAb1620 and PAb240 (conformational change) (extract of H1299 cells overexpressing R175H p53, peptide 50 ng/ml, 2 hours): increased reactivity of R175H Mut-p53 towards PAb1620 and decreased reactivity towards PAb240
